Converted amounts (≈) assume the structure as drawn. Like-named read-outs stand apart in the source and are kept apart here.
Key:
Rhinovirus type 41 = experiment: Plaque inhibition in HeLa cells, rhinovirus type 41; conditions: Enterovirus, read-out: Minimum Inhibitory Concentration (MIC)
Rhinovirus type 5 = experiment: Plaque inhibition in HeLa cells, rhinovirus type 5; conditions: Enterovirus, read-out: Minimum Inhibitory Concentration (MIC)
Rhinovirus 1425 = experiment: Plaque inhibition in HeLa cells, rhinovirus 1425; conditions: Enterovirus, read-out: Minimum Inhibitory Concentration (MIC)
Rhinovirus 998 = experiment: Plaque inhibition in HeLa cells, rhinovirus 998; conditions: for MIC: Enterovirus; for Plaque counts per plate: 998, untreated 190
rhinovirus = experiment: In vitro activity against rhinovirus strains (overall); format: cell-based; conditions: preferred compounds
Rhinovirus type 39 = experiment: Plaque inhibition in HeLa cells, rhinovirus type 39; conditions: for MIC: Enterovirus; for Plaque counts per plate: type 39, untreated 112
Rhinovirus 6579 = experiment: Plaque inhibition in HeLa cells, rhinovirus 6579; conditions: Enterovirus, read-out: Minimum Inhibitory Concentration (MIC)
Rhinovirus type 13 = experiment: Plaque inhibition in HeLa cells, rhinovirus type 13; conditions: Enterovirus, read-out: Minimum Inhibitory Concentration (MIC)
Rhinovirus 4005 = experiment: Plaque inhibition in HeLa cells, rhinovirus 4005; conditions: Enterovirus, read-out: Minimum Inhibitory Concentration (MIC)
Rhinovirus 1492 = experiment: Plaque inhibition in HeLa cells, rhinovirus 1492; conditions: for MIC: Enterovirus; for Plaque counts per plate: 1492, untreated 255
Rhinovirus type 51 = experiment: Plaque inhibition in HeLa cells, rhinovirus type 51; conditions: for MIC: Enterovirus; for Plaque counts per plate: type 51, untreated 118
Rhinovirus 1662 = experiment: Plaque inhibition in HeLa cells, rhinovirus 1662; conditions: Enterovirus, read-out: Minimum Inhibitory Concentration (MIC)
Rhinovirus type 15 = experiment: Plaque inhibition in HeLa cells, rhinovirus type 15; conditions: for MIC: Enterovirus; for Plaque counts per plate: type 15, untreated 145
Rhinovirus type 14 = experiment: Plaque inhibition in HeLa cells, rhinovirus type 14; conditions: for MIC: Enterovirus; for Plaque counts per plate: type 14, untreated 194
Rhinovirus type 3 = experiment: Plaque inhibition in HeLa cells, rhinovirus type 3; conditions: for MIC: Enterovirus; for Plaque counts per plate: type 3, untreated 170
Rhinovirus type 1A = experiment: Plaque inhibition in HeLa cells, rhinovirus type 1A; conditions: for MIC: Enterovirus; for Plaque counts per plate: type 1A, untreated 211
Rhinovirus type 1b = experiment: Plaque inhibition in HeLa cells, rhinovirus type 1B; conditions: Enterovirus, read-out: Minimum Inhibitory Concentration (MIC)
Rhinovirus type 2 = experiment: Plaque inhibition in HeLa cells, rhinovirus type 2; conditions: Enterovirus, read-out: Minimum Inhibitory Concentration (MIC)
[1] = system: influenza A virus strains; conditions: prophylaxis and symptomatic treatment; cited from earlier work
smallpox = conditions: cited from earlier work
herpes simplex keratitis = conditions: topical treatment; cited from earlier work
[2] = read-out: Minimum Inhibitory Concentration (MIC)

CCC(CC)C(=O)Nc1nn(C)c2c1sc1ccccc12 [Example 63, 2-ethyl-N-(1-methyl-1H-(1)benzothieno[3,2-c]pyrazol-3-yl)butanamide]
MIC (Rhinovirus type 41): 2 µg/mL (≈ 6.64 µM)
MIC (Rhinovirus type 5): 2 µg/mL (≈ 6.64 µM)
MIC (Rhinovirus 1425): 2 µg/mL (≈ 6.64 µM)
MIC (Rhinovirus 998; [2]): 1 µg/mL (≈ 3.32 µM)
Level of antirhinovirus activity (rhinovirus): high level of antirhinovirus activity
MIC (Rhinovirus type 39; [2]): 0.5 µg/mL (≈ 1.66 µM)
MIC (Rhinovirus 6579): 2 µg/mL (≈ 6.64 µM)
MIC (Rhinovirus type 13): 2 µg/mL (≈ 6.64 µM)
MIC (Rhinovirus 4005): 2 µg/mL (≈ 6.64 µM)
MIC (Rhinovirus 1492; [2]): 1 µg/mL (≈ 3.32 µM)
MIC (Rhinovirus type 51; [2]): 1 µg/mL (≈ 3.32 µM)
MIC (Rhinovirus 1662): 1 µg/mL (≈ 3.32 µM)
MIC (Rhinovirus type 15; [2]): 0.5 µg/mL (≈ 1.66 µM)
MIC (Rhinovirus type 14; [2]): 1 µg/mL (≈ 3.32 µM)
MIC (Rhinovirus type 3; [2]): 0.5 µg/mL (≈ 1.66 µM)
MIC (Rhinovirus type 1A; [2]): 1 µg/mL (≈ 3.32 µM)
MIC (Rhinovirus type 1b): 2 µg/mL (≈ 6.64 µM)
MIC (Rhinovirus type 2): 2 µg/mL (≈ 6.64 µM)

Cl.NC12CC3CC(CC(C3)C1)C2 [1-aminoadamantane hydrochloride]
Effectiveness against illness caused by influenza A virus [1]: effective for the prophylaxis and symptomatic treatment of illness caused by influenza A virus strains

CN1C(=O)/C(=N\NC(N)=S)c2ccccc21 [Methisazone]
Effectiveness for prevention of smallpox (smallpox): effective for the prevention of smallpox

Cn1nc(NC(=O)CC2CCCC2)c2sc3ccccc3c21 [Example 62]
MIC (Rhinovirus type 41): 2 µg/mL (≈ 6.38 µM)
MIC (Rhinovirus type 5): 2 µg/mL (≈ 6.38 µM)
MIC (Rhinovirus 1425): 2 µg/mL (≈ 6.38 µM)
MIC (Rhinovirus 998; [2]): 2 µg/mL (≈ 6.38 µM)
MIC (Rhinovirus type 39; [2]): 2 µg/mL (≈ 6.38 µM)
MIC (Rhinovirus 6579): 2 µg/mL (≈ 6.38 µM)
MIC (Rhinovirus type 13): 2 µg/mL (≈ 6.38 µM)
MIC (Rhinovirus 4005): 2 µg/mL (≈ 6.38 µM)
MIC (Rhinovirus 1492; [2]): 2 µg/mL (≈ 6.38 µM)
MIC (Rhinovirus type 51; [2]): 8 µg/mL (≈ 25.5 µM)
MIC (Rhinovirus 1662): 8 µg/mL (≈ 25.5 µM)
MIC (Rhinovirus type 15; [2]): 5 µg/mL (≈ 16 µM)
MIC (Rhinovirus type 14; [2]): 6 µg/mL (≈ 19.1 µM)
MIC (Rhinovirus type 3; [2]): 4 µg/mL (≈ 12.8 µM)
MIC (Rhinovirus type 1A; [2]): 6 µg/mL (≈ 19.1 µM)
MIC (Rhinovirus type 1b): 2 µg/mL (≈ 6.38 µM)
MIC (Rhinovirus type 2): 2 µg/mL (≈ 6.38 µM)

CC(=O)Nc1nn(C)c2c1sc1ccccc12 [Example 65, N-(1-methyl-1H-(1)benzothieno[3,2-c]pyrazol-3-yl)-acetamide]
MIC (Rhinovirus type 41): 2 µg/mL (≈ 8.15 µM)
MIC (Rhinovirus type 5): 4 µg/mL (≈ 16.3 µM)
MIC (Rhinovirus 1425): 2 µg/mL (≈ 8.15 µM)
MIC (Rhinovirus 998; [2]): 8 µg/mL (≈ 32.6 µM)
MIC (Rhinovirus type 39; [2]): 8 µg/mL (≈ 32.6 µM)
MIC (Rhinovirus 6579): 5 µg/mL (≈ 20.4 µM)
MIC (Rhinovirus type 13): 5 µg/mL (≈ 20.4 µM)
MIC (Rhinovirus 4005): 2 µg/mL (≈ 8.15 µM)
MIC (Rhinovirus 1492; [2]): 8 µg/mL (≈ 32.6 µM)
MIC (Rhinovirus type 51; [2]): 8 µg/mL (≈ 32.6 µM)
MIC (Rhinovirus 1662): 10 µg/mL (≈ 40.8 µM)
MIC (Rhinovirus type 15; [2]): 5 µg/mL (≈ 20.4 µM)
MIC (Rhinovirus type 14; [2]): 8 µg/mL (≈ 32.6 µM)
MIC (Rhinovirus type 3; [2]): 4 µg/mL (≈ 16.3 µM)
MIC (Rhinovirus type 1A; [2]): 8 µg/mL (≈ 32.6 µM)
MIC (Rhinovirus type 1b): 6 µg/mL (≈ 24.5 µM)
MIC (Rhinovirus type 2): 4 µg/mL (≈ 16.3 µM)

Cn1nc(NC(=O)c2cccnc2)c2sc3ccccc3c21 [Example 66]
MIC (Rhinovirus type 41): 2 µg/mL (≈ 6.49 µM)
MIC (Rhinovirus type 5): 2 µg/mL (≈ 6.49 µM)
MIC (Rhinovirus 1425): 2 µg/mL (≈ 6.49 µM)
MIC (Rhinovirus 998; [2]): 2 µg/mL (≈ 6.49 µM)
MIC (Rhinovirus type 39; [2]): 2 µg/mL (≈ 6.49 µM)
MIC (Rhinovirus 6579): 2 µg/mL (≈ 6.49 µM)
MIC (Rhinovirus type 13): 2 µg/mL (≈ 6.49 µM)
MIC (Rhinovirus 4005): 2 µg/mL (≈ 6.49 µM)
MIC (Rhinovirus 1492; [2]): 6 µg/mL (≈ 19.5 µM)
MIC (Rhinovirus type 51; [2]): 6 µg/mL (≈ 19.5 µM)
MIC (Rhinovirus 1662): 8 µg/mL (≈ 25.9 µM)
MIC (Rhinovirus type 15; [2]): 4 µg/mL (≈ 13 µM)
MIC (Rhinovirus type 14; [2]): 8 µg/mL (≈ 25.9 µM)
MIC (Rhinovirus type 3; [2]): 6 µg/mL (≈ 19.5 µM)
MIC (Rhinovirus type 1A; [2]): 5 µg/mL (≈ 16.2 µM)
MIC (Rhinovirus type 1b): 2 µg/mL (≈ 6.49 µM)
MIC (Rhinovirus type 2): 2 µg/mL (≈ 6.49 µM)

O=c1[nH]c(=O)n([C@H]2C[C@H](O)[C@@H](CO)O2)cc1I [Idoxuridine]
Effectiveness in herpes simplex keratitis (herpes simplex keratitis): effective for the topical treatment of herpes simplex keratitis

Cn1nc(NC(=O)C(C)(C)C)c2sc3ccccc3c21 [2,2-dimethyl-N-(1-methyl-1H-(1)benzothieno[3,2-c]pyrazol-3-yl)propanamide]
Level of antirhinovirus activity (rhinovirus): high level of antirhinovirus activity

Nc1ncnc2c1ncn2[C@@H]1O[C@H](CO)[C@@H](O)[C@@H]1O [adenine arabinoside]
Effectiveness in herpes simplex keratitis (herpes simplex keratitis): effective for the topical treatment of herpes simplex keratitis

CCC(CC)(CC)C(=O)Nc1nn(C)c2c1sc1ccccc12
Plaque counts per plate (Rhinovirus 998; 0.1 μg/ml): 103 Plaque counts per plate
Plaque counts per plate (Rhinovirus 998; 0.5 μg/ml): 0 Plaque counts per plate
Plaque counts per plate (Rhinovirus 998; 1.0 μg/ml): 0 Plaque counts per plate
Plaque counts per plate (Rhinovirus 998; 2.0 μg/ml): 0 Plaque counts per plate
MIC (Rhinovirus 998): 0.5 µg/mL (≈ 1.52 µM)
Level of antirhinovirus activity (rhinovirus): high level of antirhinovirus activity
Plaque counts per plate (Rhinovirus type 39; 0.1 μg/ml): 65 Plaque counts per plate
Plaque counts per plate (Rhinovirus type 39; 0.5 μg/ml): 4 Plaque counts per plate
Plaque counts per plate (Rhinovirus type 39; 1.0 μg/ml): 0 Plaque counts per plate
Plaque counts per plate (Rhinovirus type 39; 2.0 μg/ml): 0 Plaque counts per plate
MIC (Rhinovirus type 39): 1 µg/mL (≈ 3.04 µM)
Plaque counts per plate (Rhinovirus 1492; 0.1 μg/ml): 140 Plaque counts per plate
Plaque counts per plate (Rhinovirus 1492; 0.5 μg/ml): 12 Plaque counts per plate
Plaque counts per plate (Rhinovirus 1492; 1.0 μg/ml): 0 Plaque counts per plate
Plaque counts per plate (Rhinovirus 1492; 2.0 μg/ml): 0 Plaque counts per plate
MIC (Rhinovirus 1492): 1 µg/mL (≈ 3.04 µM)
Plaque counts per plate (Rhinovirus type 51; 0.1 μg/ml): 211 Plaque counts per plate
Plaque counts per plate (Rhinovirus type 51; 0.5 μg/ml): 28 Plaque counts per plate
Plaque counts per plate (Rhinovirus type 51; 1.0 μg/ml): 0 Plaque counts per plate
Plaque counts per plate (Rhinovirus type 51; 2.0 μg/ml): 0 Plaque counts per plate
MIC (Rhinovirus type 51): 1 µg/mL (≈ 3.04 µM)
Plaque counts per plate (Rhinovirus type 15; 0.1 μg/ml): 61 Plaque counts per plate
Plaque counts per plate (Rhinovirus type 15; 0.5 μg/ml): 0 Plaque counts per plate
Plaque counts per plate (Rhinovirus type 15; 1.0 μg/ml): 0 Plaque counts per plate
Plaque counts per plate (Rhinovirus type 15; 2.0 μg/ml): 0 Plaque counts per plate
MIC (Rhinovirus type 15): 0.5 µg/mL (≈ 1.52 µM)
Plaque counts per plate (Rhinovirus type 14; 0.1 μg/ml): 125 Plaque counts per plate
Plaque counts per plate (Rhinovirus type 14; 0.5 μg/ml): 20 Plaque counts per plate
Plaque counts per plate (Rhinovirus type 14; 1.0 μg/ml): 0 Plaque counts per plate
Plaque counts per plate (Rhinovirus type 14; 2.0 μg/ml): 0 Plaque counts per plate
MIC (Rhinovirus type 14): 1 µg/mL (≈ 3.04 µM)
Plaque counts per plate (Rhinovirus type 3; 0.1 μg/ml): 119 Plaque counts per plate
Plaque counts per plate (Rhinovirus type 3; 0.5 μg/ml): 0 Plaque counts per plate
Plaque counts per plate (Rhinovirus type 3; 1.0 μg/ml): 0 Plaque counts per plate
Plaque counts per plate (Rhinovirus type 3; 2.0 μg/ml): 0 Plaque counts per plate
MIC (Rhinovirus type 3): 0.5 µg/mL (≈ 1.52 µM)
Plaque counts per plate (Rhinovirus type 1A; 0.1 μg/ml): 153 Plaque counts per plate
Plaque counts per plate (Rhinovirus type 1A; 0.5 μg/ml): 60 Plaque counts per plate
Plaque counts per plate (Rhinovirus type 1A; 1.0 μg/ml): 4 Plaque counts per plate
Plaque counts per plate (Rhinovirus type 1A; 2.0 μg/ml): 0 Plaque counts per plate
MIC (Rhinovirus type 1A): 2 µg/mL (≈ 6.07 µM)

CC(C)CC(=O)Nc1nn(C)c2c1sc1ccccc12 [Example 64]
MIC (Rhinovirus type 41): 2 µg/mL (≈ 6.96 µM)
MIC (Rhinovirus type 5): 2 µg/mL (≈ 6.96 µM)
MIC (Rhinovirus 1425): 4 µg/mL (≈ 13.9 µM)
MIC (Rhinovirus 998; [2]): 1 µg/mL (≈ 3.48 µM)
MIC (Rhinovirus type 39; [2]): 1 µg/mL (≈ 3.48 µM)
MIC (Rhinovirus 6579): 2 µg/mL (≈ 6.96 µM)
MIC (Rhinovirus type 13): 2 µg/mL (≈ 6.96 µM)
MIC (Rhinovirus 4005): 2 µg/mL (≈ 6.96 µM)
MIC (Rhinovirus 1492; [2]): 2 µg/mL (≈ 6.96 µM)
MIC (Rhinovirus type 51; [2]): 2 µg/mL (≈ 6.96 µM)
MIC (Rhinovirus 1662): 2 µg/mL (≈ 6.96 µM)
MIC (Rhinovirus type 15; [2]): 1 µg/mL (≈ 3.48 µM)
MIC (Rhinovirus type 14; [2]): 1 µg/mL (≈ 3.48 µM)
MIC (Rhinovirus type 3; [2]): 1 µg/mL (≈ 3.48 µM)
MIC (Rhinovirus type 1A; [2]): 1 µg/mL (≈ 3.48 µM)
MIC (Rhinovirus type 1b): 2 µg/mL (≈ 6.96 µM)
MIC (Rhinovirus type 2): 2 µg/mL (≈ 6.96 µM)

From patent publication US4140785A, “N-(benzothienopyrazol)amide antirhinoviral agents” (E. I. Du Pont de Nemours and Company, priority 1978, dated 1979)
